Data taken from patent US20260137707A1, “METHODS OF MODULATING ATXN2 EXPRESSION” (University of Utah Research Foundation, priority 2022, published 2026).
Entries after “also recorded” stand apart in the source; their conditions may differ.

Columns and labels:
[1] = BAC-Q22 mice, survival / tolerability; type: in vivo; details: IP every other day, 17-DMAG 100 mg/kg, HSP990 4 mg/kg
Procedure: (§1) BAC-ATXN2-Q22 (BAC-Q22) mice were used as previously described. BAC-Q22 are transgenic for the complete human ATXN2 gene with all introns and exons, including 16 kb upstream sequence driving ATXN2 expression and the complete 3′-UTR. The mice used in this study were maintained on a mixed B6;D2 background with backcrossing to wildtype vendor-purchased (Jackson Laboratories) mice every five generations. Mice were treated with 17-DMAG or HSP990 by intraperitoneal (IP) injection, 200-300 μl total volume. 17-DMAG was diluted in 40% DMSO and 0.05% Tween 20 and mice received 100 mg/kg 17-DMAG. HSP990 was diluted in 0.6% DMSO and 0.05% Tween 20 and mice received 4 mg/kg HSP990. Control treated mice included vehicle alone. Mice were treated repeatedly as described in Results. Mouse husbandry and surgical procedures were in accordance to Institutional Animal Care and Use Committee (IACUC) approved protocols.
Since 17-DMAG reduced expression of both the wildtype and mutant ATXN2 proteins, its effects were tested using only ATXN2-BAC mice harboring the non-mutant human ATXN2-Q22 gene (BAC-Q22 mice). Reliable detection of mutant ATXN2 protein by western blot in samples isolated from SCA2 BAC mice is possible, but it is challenging and involves use of the 1C2 antibody. […] Three blots were quantified. […]

ATXN3 = details: ATXN3-135Q transgenic mice, cited from earlier work
ATXN2-luc mRNA = ATXN2-luc mRNA abundance in H2 cells by quantitative PCR; type: cell-based; details: 1 and 10 uM, 48 hrs
Excerpt: Total RNA was extracted from cells cultured in 24-well plates using the RNeasy Mini-Kit (Qiagen Inc.) according to the manufacturer's protocol. DNAse I treated RNAs were used to synthesize cDNA using ProtoScript cDNA synthesis kit (New England Biolabs Inc.). Sets of primers used for qPCR included ATXN2 primers ATXN2-F (5′-[sequence]-3′) & ATXN2-R (5′-[sequence]-3′), ATP1A2 primers ATP1A2-F (5′-[sequence]-3′) & ATP1A2-R (5′-[sequence]-3′), GAPDH primers GAPDH-F133 (5′-[sequence]-3′) & GAPDH-R333 (5′-[sequence]-3′), and mouse Actb primers Actb-F (5′-[sequence]-3′) & Actb-R (5′-[sequence]-3′). qPCR was performed in the Bio-Rad CFX96 instrument (Bio-Rad Inc.) with the Power SYBR Green PCR master mix (Applied Biosystems Inc.). PCR amplification was carried out for 45 cycles. Cycling parameters were denaturation (95° C. for 10 s), annealing (60° C. for 10 s), extension (72° C. for 40 s).
The ATXN2-luc mRNA abundance was determined by quantitative PCR using primers that amplify the luciferase gene. Probabilities are from one-way ANOVA and post-hoc Bonferroni corrected t-tests: ns, not significant; **, P<0.01.

HSP70 [2] = test: Western blot of HSP70 in cells (HSP90 target engagement); type: cell-based; details: cultured cells, western blotting
Excerpt: Probabilities are from one-way ANOVA and post-hoc Bonferroni corrected t-tests: ns, not significant; **, P<0.01.
Probabilities are from one-way ANOVA and post-hoc Bonferroni corrected t-tests: ns, not significant; *, p<0.05; **, p<0.01, ***, p<0.001. The n number of blots ranged from 3 to 9.

HSP70 [3] = test: BAC-Q22 mice, HSP70 western blot; type: in vivo; details: IP every other day, 17-DMAG 100 mg/kg, HSP990 4 mg/kg
Procedure: as §1
Proteins were prepared, separated on precast polyacrylamide gels (Bio-Rad), transferred to Hybond (Amersham) and detected by ECL (Amersham) as previously described. […]
Since 17-DMAG reduced expression of both the wildtype and mutant ATXN2 proteins, its effects were tested using only ATXN2-BAC mice harboring the non-mutant human ATXN2-Q22 gene (BAC-Q22 mice). […] Three blots were quantified.

[4] = cited from earlier work
[5] = test system: STAU1, mTOR, p62, LC3b, CHOP, eIF3α, BiP; test: Western blot of STAU1, autophagy and UPR proteins in ATXN2-Q58 HEK-293 KI cells; type: cell-based
Excerpt: (§2) Antibodies included the following: mouse monoclonal anti-Ataxin-2 antibody (Clone 22/Ataxin-2) (BD Biosciences, 611378), rabbit monoclonal anti-Hsp70 antibody (EPR16892) (Abcam, ab181606), mouse monoclonal anti-β-Actin-peroxidase antibody (clone AC-15) (Sigma-Aldrich, A3854), rabbit polyclonal anti-Staufen antibody (Novus Biologicals, NBP1-33202), mouse monoclonal anti-CHOP (L63F7) antibody (Cell Signaling Technology, 2895), rabbit polyclonal anti-phospho-eIF2a (Ser51) antibody (Cell Signaling Technology, 9721), rabbit polyclonal anti-mTOR antibody (Cell Signaling Technology, 2972), rabbit polyclonal anti-SQSTM1/p62 antibody (Cell Signaling Technology, 5114), rabbit polyclonal anti-LC3B antibody (Novus Biologicals, NB100-2220), rabbit monoclonal anti-BiP antibody (C50B12) (Cell Signaling Technology, 3177). Secondary antibodies included peroxidase-conjugated horse anti-mouse IgG (Vector Laboratories, PI-2000) and peroxidase AffiniPure goat anti-rabbit IgG (Jackson ImmunoResearch Laboratories, 111-035-144).
To determine if lowering ATXN2-Q58 in HEK-293 KI cells could restore pathways that are abnormal in SCA2, several proteins were evaluated by western blotting and RNAs by quantitative PCR following 17-DMAG treatment. […] Probabilities are from one-way ANOVA and post-hoc Bonferroni corrected t-tests: ns, not significant; *, p<0.05; **, p<0.01, ***, p<0.001. […]

[6] = test system: endogenous non-mutant ATXN2 protein; test: Western blot of endogenous non-mutant ATXN2 protein in HEK-293 cells; type: cell-based; details: western blotting
mutant ATXN2-Q58 protein = test: Western blot of mutant ATXN2-Q58 protein in HEK-293 KI cells; type: cell-based; details: western blotting
Excerpt: The n number of blots ranged from 3 to 9.

ATXN2-Q22 = test: BAC-Q22 mice, ATXN2 western blot; type: in vivo; details: for reduction of ATXN2 protein abundance: ATXN2-BAC mice, IP, 17-DMAG 100 mg/kg, HSP990 4 mg/kg; for ATXN2 abundance: BAC-Q22 mice, IP every other day, 17-DMAG 100 mg/kg 16 days, HSP990 4 mg/kg 10 days
Procedure: as §1
Proteins were prepared, separated on precast polyacrylamide gels (Bio-Rad), transferred to Hybond (Amersham) and detected by ECL (Amersham) as previously described.
as §2
Since 17-DMAG reduced expression of both the wildtype and mutant ATXN2 proteins, its effects were tested using only ATXN2-BAC mice harboring the non-mutant human ATXN2-Q22 gene (BAC-Q22 mice). Reliable detection of mutant ATXN2 protein by western blot in samples isolated from SCA2 BAC mice is possible, but it is challenging and involves use of the 1C2 antibody. To test efficacy of 17-DMAG in the wildtype ATXN2 mice, 27 wk old BAC-Q22 mice were treated (n=4 per group, 2 males, 2 females) every other day over 16-days (days 1, 3, 5, 7, 9, 11, 13, 15) then sacrificed on day 16. […] Three blots were quantified.

[7] = cited from earlier work; remark: listed apart in the source

Row | Compound | survival / tolerability [1] | ATXN3 protein abundance (ATXN3; CNS tissues) | motor coordination (ATXN3) | ATXN2-luc transcription (ATXN2-luc mRNA) | HSP70 (HSP70 [2]) | HSP70 (HSP70 [3]) | oral bioavailability [4] | BiP [5] | abundance of STAU1, autophagy marker proteins (mTOR, p62, LC3b) and UPR proteins CHOP and eIF3α [5] | expression of endogenous non-mutant ATXN2 protein [6] | mutant ATXN2-Q58 protein (mutant ATXN2-Q58 protein) | reduction of ATXN2 protein abundance (ATXN2-Q22) | ATXN2 abundance (ATXN2-Q22) | toxicity in clinical trial [7]
1 | CO[C@H]1/C=C\C=C(/C)C(=O)NC2=CC(=O)C(NCCN(C)C)=C(C[C@@H](C)C[C@H](OC)[C@H](O)[C@@H](C)/C=C(\C)[C@@H]1OC(N)=O)C2=O [17-DMAG, 17-dimethylaminoethylamino-17-demethoxygeldanamycin] | well-tolerated | reduced ATXN3 protein abundance in CNS tissues | improved motor coordination | reduction of ATXN2-luc transcription | elevated HSP70; also recorded: increase in HSP70 | HSP70 induction | orally bioavailable | further elevated BiP | restored abundance | reduced the expression; also recorded: reduction of endogenous non-mutant ATXN2 protein | reduced the expression; also recorded: significantly reduced mutant ATXN2 protein; also recorded: reduction of ATXN2 protein | 90% | reduced ATXN2 abundance | 
2 | COc1cccc(-c2cc(F)ccc2[C@H]2Cc3nc(N)nc(C)c3C(=O)N2)n1 [HSP990] | the two females in the HSP990 treatment group did not survive; also recorded: half of the mice treated with HSP990 did not survive treatment |  |  |  |  | increased HSP70 |  |  |  |  |  | 80% | reduced ATXN2 abundance | dose-limiting neurotoxicities
